# Test results: PMC5617977, “Antibacterial Activity and Toxicity of Analogs of Scorpion Venom IsCT Peptides” (Antibiotics, 2017)
# “Also recorded” adds a separate entry of the source. Where no end group is shown, it is not given here.
# How the values were obtained:
# [1] = test system: Enterobacter aerogenes (ATCC# 13048); experiment: Antibacterial activity, standard broth (liquid) dilution; type: cell-based; settings: Luria Bertani broth, peptide 1, 10, 50, 100 μg/mL, 37 °C, 24 h, absorbance 600 nm; MIC interpolated at 0% bacterial growth; average of three independent experiments
# Method: (§1) Antimicrobial activities were determined by standard broth dilution against two Gram-positive and three Gram-negative bacteria. In general, the MICs seem to be higher than the concentrations tested in our experiments (Table 3). Only Staphylococcus aureus and Escherichia coli seem to be inhibited with both natural peptides but also by the leucine substituted analogue, IsCT1L1, at concentrations lower than 25 μg/mL. […] Curiously, some peptides—such as IsCT1V1, IsCT1E7, or even natural IsCT1—when tested with Bacillus cereus show significant bacteria growth inhibition at concentrations lower than 10 μg/mL.
# (§2) Two Gram-positive bacteria: Staphylococcus aureus (ATCC# 29213) and Bacillus cereus (ATCC# 11778); and three Gram-negative bacteria: Salmonella typhimurium (ATCC# 14028), Enterobacter aerogenes (ATCC# 13048), and Escherichia coli (ATCC# 25922) were tested.
# (§3) Activity was determined by the standard liquid dilution method described previously. All results are the average of three independent experiments. Briefly, cells were grown overnight at 37 °C in Luria Bertani broth and diluted in the same medium for assays. Bacteria were added to serial dilutions of the peptides (final concentrations of 1, 10, 50, and 100 μg/mL) and incubated at 37 °C for 24 h. Cell growth was measured by UV absorbance at 600 nm. For each bacterium, a solution containing no peptide (concentration 0 μg/mL) was processed under identical conditions and used as control for 100% bacterial growth. MICs were obtained from interpolation of 0% bacterial growth from plots. Results are the average of three independent experiments.
# [2] = test system: Escherichia coli (ATCC# 25922); experiment: as above; type: cell-based; settings: Luria Bertani broth, peptide 1, 10, 50, 100 μg/mL, 37 °C, 24 h, absorbance 600 nm; MIC interpolated at 0% bacterial growth; average of three independent experiments
# Method: as §1, §2, §3
# [3] = test system: Staphylococcus aureus (ATCC# 29213); experiment: as above; type: cell-based; settings: Luria Bertani broth, peptide 1, 10, 50, 100 μg/mL, 37 °C, 24 h, absorbance 600 nm; MIC interpolated at 0% bacterial growth; average of three independent experiments
# Method: as §1, §2, §3
# [4] = test system: Bacillus cereus (ATCC# 11778); experiment: as above; type: cell-based; settings: for MIC B. cereus: Luria Bertani broth, peptide 1, 10, 50, 100 μg/mL, 37 °C, 24 h, absorbance 600 nm, MIC interpolated at 0% bacterial growth, average of three independent experiments
# Method: as §1, §2, §3
# [5] = test system: Salmonella typhimurium (ATCC# 14028); experiment: as above; type: cell-based; settings: Luria Bertani broth, peptide 1, 10, 50, 100 μg/mL, 37 °C, 24 h, absorbance 600 nm; MIC interpolated at 0% bacterial growth; average of three independent experiments
# Method: as §1, §2, §3
# human erythrocytes = experiment: Hemolytic activity; type: cell-based; settings: 1% human erythrocytes in 1× PBS, peptide 1, 10, 50, 100 μg/mL, 37 °C, 1 h, hemoglobin at 416 nm, 100% control 1% TritonX-100; average of two independent experiments
# Method: Hemolytic activity was carried out as described previously. Briefly, serial concentrations of peptides (final concentrations of 0 as blank, 1, 10, 50, and 100 μg/mL) were added to 1% human erythrocytes in 1× PBS buffer. The cell suspensions were incubated at 37 °C for 1 h and then centrifuged to remove unlysed erythrocytes. Released hemoglobin was determined spectrophotometrically at 416 nm. The control for 100% release of hemoglobin was a sample of 1% erythrocyte incubated in PBS with 1% TritonX-100. Results are the average of two independent experiments.
# S. aureus = settings: ref Kim [16]; cited from earlier work
# Method: (§4) Studies of bacterial inhibition carried out by Dai with IsCT1 and IsCT2 natural peptides show a range of MICs of 1 to 5 μg/mL for different strains of S. aureus and 10 to 25 μg/mL for two strains of Bacillus. For Gram-negative bacteria, they show 5 to 120 μg/mL for two strains of E. coli but 100 or more than 200 μg/mL for other strains of Gram-negative bacteria (Pseudomonas aeruginosa and Proteus mirabilis). Bacterial inhibition studies by Kim with IsCT show MICs of 6 μg/mL for E. coli and 3 μg/mL for S. aureus and, for the IsCT1K7 analog, the reported concentrations are 3 and 1.5 μg/mL ...
# E. coli = settings: ref Kim [16]; cited from earlier work
# Method: as §4
# [6] = test system: Pseudomonas aeruginosa and Proteus mirabilis; settings: printed as 100 or more than 200; ref Dai [21]; cited from earlier work
# Method: as §4
Substance,MIC E. aerogenes [1] [µg/mL],MIC E. coli [2] [µg/mL],MIC S. aureus [3] [µg/mL],MIC B. cereus [4] [µg/mL],MIC S. typhimurium [5] [µg/mL],Hemolytic activity (in words) (human erythrocytes),"concentration showing significant bacteria growth inhibition, Bacillus cereus ([4]; inhibition at low concentration, then plateau or slight increase of growth at higher concentrations (Figure S2))",MIC S. aureus (S. aureus) [µg/mL],MIC E. coli (E. coli) [µg/mL],"MIC, other Gram-negative strains (Pseudomonas aeruginosa and Proteus mirabilis) [6] [µg/mL]"
ILGKIWEGIESLF-NH2 [IsCT1E7],>100,>100,>100,>100,>100,no toxicity at all; also recorded: do not have any apparent citotoxicity; also recorded: no apparent cytotoxicity,–,–,–,–
"ILGAAWNGAKSLF-NH2 [IsCT2A1, alanine substituted (positions 5 and 9) analog of IsCT2]",>100,>100,>100,>100,>100,–,–,–,–,–
ILGKVWEGVKSLF-NH2 [IsCT1V1],>100,>100,>100,>100,>100,–,–,–,–,–
ILGKAWEGAKSLF-NH2 [IsCT1A1],>100,>100,>100,>100,>100,–,–,–,–,–
ILGKLWEGLKSLF-NH2 [IsCT1L1],>100,50,50,>100,100,highest hemolytic activity; also recorded: toxicity similar to the wild type peptides,–,–,–,–
ILGKIWKGIKSLF-NH2 [IsCT1K7],>100,>100,100,>100,100,highest hemolytic activity,–,–,–,–
"ILGKIWEGIKSLF-NH2 [IsCT1, reference compound]",>100,50,50,>100,100,highest hemolytic activity,lower than 10 μg/mL,3,6,≥ 100
"IFGAIWNGIKSLF-NH2 [IsCT2, reference compound]",>100,50,50,100,100,highest hemolytic activity,–,–,–,≥ 100
"ILGAVWNGVKSLF-NH2 [IsCT2V1, valine substituted (positions 5 and 9) analog of IsCT2]",>100,>100,>100,>100,>100,–,–,–,–,–
